Measurements reported in ChEMBL document CHEMBL1201862, “PubChem BioAssay data set” (2004).
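Interpolation was linear, between the two tested concentrations surrounding the appropriate level; five concentrations were tested over 48 hours in 96-well plates. GI50: concentration for 50% inhibition of growth.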 Active and inactive are the calls of the source. Rule as the data show it: active = GI50 up to about 1.1 µM and inactive = higher.

Tests used:
Assay in all cases: NCI-60 cell line screen, 48 h
UACC-62 = system: UACC-62
NCI/ADR-RES = system: NCI/ADR-RES
HCC 2998 = system: HCC 2998
K562 = system: K562
NCI-H460 = system: NCI-H460
OVCAR-8 = system: OVCAR-8
U-251 = system: U-251
HOP-62 = system: HOP-62
OVCAR-3 = system: OVCAR-3
MOLT-4 = system: MOLT-4
DU-145 = system: DU-145
SF-295 = system: SF-295
SK-MEL-2 = system: SK-MEL-2
ACHN = system: ACHN
MCF7 = system: MCF7
SK-OV-3 = system: SK-OV-3
MDA-MB-231 = system: MDA-MB-231
LOX IMVI = system: LOX IMVI
A549 = system: A549
NCI-H522 = system: NCI-H522

Structure (SMILES)	GI50 (UACC-62)	GI50 (NCI/ADR-RES)	GI50 (HCC 2998)	GI50 (K562)	GI50 (NCI-H460)	GI50 (OVCAR-8)	GI50 (U-251)	GI50 (HOP-62)	GI50 (OVCAR-3)	GI50 (MOLT-4)	GI50 (DU-145)	GI50 (SF-295)	GI50 (SK-MEL-2)	GI50 (ACHN)	GI50 (MCF7)	GI50 (SK-OV-3)	GI50 (MDA-MB-231)	GI50 (LOX IMVI)	GI50 (A549)	GI50 (NCI-H522)
Ic1cccc(/C=C/CN2CCN(CCOC(c3ccccc3)c3ccccc3)CC2)c1	18.6 µM (inactive)	16 µM (inactive)	6.97 µM (inactive)	4.62 µM (inactive)	11.3 µM (inactive)	16 µM (inactive)	13.6 µM (inactive)	17 µM (inactive)	16.7 µM (inactive)	5.32 µM (inactive)	13.2 µM (inactive)	17.5 µM (inactive)	17.7 µM (inactive)	44.6 µM (inactive)	14.6 µM (inactive)	21.6 µM (inactive)	14 µM (inactive)	13.2 µM (inactive)	17.5 µM (inactive)	16.1 µM (inactive)
NNC(=O)c1ccccc1Nc1ccccc1C(=O)NN	> 100 µM (inactive)	> 100 µM (inactive)	> 100 µM (inactive)	> 100 µM (inactive)	> 100 µM (inactive)	> 100 µM (inactive)	> 100 µM (inactive)	> 100 µM (inactive)	> 100 µM (inactive)	> 100 µM (inactive)	> 100 µM (inactive)	> 100 µM (inactive)	> 100 µM (inactive)	> 100 µM (inactive)	> 100 µM (inactive)	> 100 µM (inactive)	> 100 µM (inactive)	> 100 µM (inactive)	> 100 µM (inactive)	> 100 µM (inactive)
S=C(S)NCCN1CCNCC1	84.9 µM (inactive)	> 100 µM (inactive)	22.7 µM (inactive)	24.4 µM (inactive)	34.6 µM (inactive)	28.9 µM (inactive)	> 100 µM (inactive)	> 100 µM (inactive)	22.4 µM (inactive)	–	36.1 µM (inactive)	> 100 µM (inactive)	67.1 µM (inactive)	36.7 µM (inactive)	40 µM (inactive)	> 100 µM (inactive)	> 100 µM (inactive)	40.1 µM (inactive)	> 100 µM (inactive)	14.7 µM (inactive)
COc1cc2c3c(cc(Cl)nc3c1OC)C(O)(CC(C)=O)C(=O)N2 (centres undefined)	16.6 µM (inactive)	> 44.9 µM (inactive)	> 44 µM (inactive)	18.5 µM (inactive)	36 µM (inactive)	18.5 µM (inactive)	57.8 µM (inactive)	> 44.6 µM (inactive)	33 µM (inactive)	9.35 µM (inactive)	> 39.1 µM (inactive)	> 100 µM (inactive)	20.3 µM (inactive)	24.9 µM (inactive)	16 µM (inactive)	> 47.1 µM (inactive)	17 µM (inactive)	16.3 µM (inactive)	> 42.9 µM (inactive)	8.97 µM (inactive)
Nc1ncc(Cc2nc3ccccc3s2)s1	54 µM (inactive)	91.6 µM (inactive)	> 100 µM (inactive)	56.4 µM (inactive)	73.6 µM (inactive)	57.3 µM (inactive)	90.4 µM (inactive)	> 100 µM (inactive)	47.3 µM (inactive)	> 100 µM (inactive)	> 100 µM (inactive)	40.9 µM (inactive)	> 100 µM (inactive)	54.5 µM (inactive)	35.6 µM (inactive)	> 100 µM (inactive)	69.8 µM (inactive)	> 100 µM (inactive)	69.8 µM (inactive)	53.1 µM (inactive)
CC1(C)OC2C(O)C(CO)OC2(C(F)F)O1 (centres undefined)	> 100 µM (inactive)	> 100 µM (inactive)	> 100 µM (inactive)	> 100 µM (inactive)	> 100 µM (inactive)	> 100 µM (inactive)	> 100 µM (inactive)	> 100 µM (inactive)	> 100 µM (inactive)	> 100 µM (inactive)	> 100 µM (inactive)	> 100 µM (inactive)	> 100 µM (inactive)	–	> 100 µM (inactive)	> 100 µM (inactive)	> 100 µM (inactive)	> 100 µM (inactive)	> 100 µM (inactive)	> 100 µM (inactive)
CC(=O)c1c(O)c(C)c(O)c(Cc2c(O)c3c(c(C(=O)/C=C/c4ccccc4)c2O)OC(C)(C)C=C3)c1O [ROTTLERIN]	2.95 µM (inactive)	2.53 µM (inactive)	2.23 µM (inactive)	1.07 µM (active)	2.94 µM (inactive)	3.08 µM (inactive)	2.31 µM (inactive)	–	2.7 µM (inactive)	1.89 µM (inactive)	3.49 µM (inactive)	2.85 µM (inactive)	1.34 µM (inactive)	3.51 µM (inactive)	3.13 µM (inactive)	4.04 µM (inactive)	2.08 µM (inactive)	2.86 µM (inactive)	0.986 µM (active)	1.95 µM (inactive)
Nn1c(Cc2ccccc2)n[nH]c1=O	> 100 µM (inactive)	> 100 µM (inactive)	> 100 µM (inactive)	> 100 µM (inactive)	> 10 µM (inactive)	> 100 µM (inactive)	> 100 µM (inactive)	> 100 µM (inactive)	> 100 µM (inactive)	> 100 µM (inactive)	> 100 µM (inactive)	> 100 µM (inactive)	> 100 µM (inactive)	> 100 µM (inactive)	> 100 µM (inactive)	> 100 µM (inactive)	> 100 µM (inactive)	> 100 µM (inactive)	> 100 µM (inactive)	> 100 µM (inactive)
COc1ccc(C(C)c2cc3c(cc2OC)OCO3)cc1 (centres undefined)	0.2 µM (active)	0.0268 µM (active)	0.193 µM (active)	0.0389 µM (active)	0.122 µM (active)	0.269 µM (active)	0.229 µM (active)	0.124 µM (active)	0.107 µM (active)	0.264 µM (active)	0.231 µM (active)	0.0611 µM (active)	0.0767 µM (active)	3.01 µM (inactive)	0.0461 µM (active)	0.2 µM (active)	0.112 µM (active)	0.205 µM (active)	0.218 µM (active)	0.0455 µM (active)
COP(=O)(OC)/C(=C/c1c[nH]c2ccccc12)C(=O)O	> 100 µM (inactive)	> 100 µM (inactive)	> 100 µM (inactive)	> 100 µM (inactive)	> 100 µM (inactive)	> 100 µM (inactive)	> 100 µM (inactive)	> 100 µM (inactive)	> 100 µM (inactive)	> 100 µM (inactive)	> 100 µM (inactive)	> 100 µM (inactive)	> 100 µM (inactive)	> 100 µM (inactive)	> 100 µM (inactive)	> 100 µM (inactive)	> 100 µM (inactive)	> 100 µM (inactive)	> 100 µM (inactive)	> 100 µM (inactive)
CSc1nc(-c2ccccc2)nc(C(C#N)C#N)n1	> 100 µM (inactive)	> 100 µM (inactive)	> 100 µM (inactive)	–	–	> 100 µM (inactive)	> 100 µM (inactive)	> 100 µM (inactive)	> 100 µM (inactive)	> 100 µM (inactive)	> 100 µM (inactive)	> 100 µM (inactive)	> 100 µM (inactive)	> 100 µM (inactive)	> 100 µM (inactive)	> 100 µM (inactive)	> 100 µM (inactive)	> 100 µM (inactive)	> 100 µM (inactive)	> 100 µM (inactive)
O=C(Nc1sccc1S(=O)(=O)c1ccc(Cl)cc1)c1ccc(Cl)cc1	> 100 µM (inactive)	> 100 µM (inactive)	> 100 µM (inactive)	> 100 µM (inactive)	56.5 µM (inactive)	63 µM (inactive)	31 µM (inactive)	39.4 µM (inactive)	> 100 µM (inactive)	> 100 µM (inactive)	> 100 µM (inactive)	34 µM (inactive)	59.8 µM (inactive)	99.1 µM (inactive)	99.8 µM (inactive)	52.6 µM (inactive)	35.2 µM (inactive)	> 100 µM (inactive)	94.8 µM (inactive)	> 100 µM (inactive)
CC1=C2O[C@]3(O)C=C2C(=C(O)C1=O)[C@@H]1O[C@H](CC[C@H](C)/C=C(\C)C[C@@H](C)C[C@@H]3C)[C@H](C)[C@H](O)[C@H]1C [KENDOMYCIN]	0.233 µM (active)	0.311 µM (active)	0.167 µM (active)	0.166 µM (active)	0.728 µM (active)	–	0.326 µM (active)	0.356 µM (active)	0.15 µM (active)	0.097 µM (active)	0.265 µM (active)	1.22 µM (inactive)	0.247 µM (active)	0.132 µM (active)	0.179 µM (active)	1.12 µM (active)	0.151 µM (active)	0.24 µM (active)	0.982 µM (active)	0.218 µM (active)
CC(=O)OC1CC(n2cc(F)c(=O)[nH]c2=O)OC1CO (centres undefined)	0.42 µM (active)	1.93 µM (inactive)	< 0.0279 µM (active)	15.1 µM (inactive)	0.0177 µM (active)	0.668 µM (active)	5.69 µM (inactive)	0.152 µM (active)	13.5 µM (inactive)	1.08 µM (active)	1.15 µM (inactive)	0.209 µM (active)	> 28.8 µM (inactive)	0.0585 µM (active)	0.22 µM (active)	61.1 µM (inactive)	> 55.2 µM (inactive)	0.324 µM (active)	0.143 µM (active)	2.15 µM (inactive)
